The results in this text go back to patent US11034650B2, “Compounds useful for treating a Mannheimia haemolytica or Histophilus somni infection” (Intervet Inc., priority 2016, dated 2021).

Assay type in all cases: cell-based
Experiment [1] deals with Mannheimia haemolytica MH 6374 (ATCC 33396, reference strain). Put plainly: MIC, broth-microdilution (CLSI VET01-A4), strain MH 6374. As to conditions: Mannheimia haemolytica strain MH 6374, broth-microdilution; unit assumed. Here is the method: (§1) For example, representative compounds were tested against ***, Mannheimia haemolytica and Pasteurella multocida, using the conventional broth-dilution assay.
(§2) The Minimum inhibitory concentrations (MIC) of compounds according to the invention for a number of veterinary bacterial pathogens were determined by the broth-microdilution method according to CLSI document VET01-A4.
(§3) Microdilution trays containing a doubling dilution series of the test compound were used for the tests. The MIC results were interpreted according to the CLSI documents VET01-S3. The lowest concentration of compound at which no visible growth (i.e. no turbidity) detected by the unaided eye was recorded as the MIC.

Experiment [2] relates to Mannheimia haemolytica MH 10720 (154, BRD field isolate). Description: MIC, broth-microdilution (CLSI VET01-A4), strain MH 10720. As to conditions: Mannheimia haemolytica strain MH 10720, broth-microdilution; unit assumed. Here is the method: as §1, §2, §3
Experiment [3] deals with Pasteurella multocida PM 6267 (P 2225 (L386), reference strain, mouse infection strain). Put plainly: MIC, broth-microdilution (CLSI VET01-A4), strain PM 6267. As to conditions: Pasteurella multocida strain PM 6267, broth-microdilution; unit assumed. Here is the method:
as §1, §2, §3

The subject of experiment [4] is Mannheimia haemolytica MH 12587 (1071, BRD field isolate, macrolide-resistance: erm+, E+). Description: MIC, broth-microdilution (CLSI VET01-A4), strain MH 12587. As to conditions: Mannheimia haemolytica strain MH 12587, broth-microdilution; unit assumed. The method, then:
as §1, §2, §3

Experiment [5] deals with Mannheimia haemolytica MH 13065 (XB0446-6003.9, BRD field isolate). Description: MIC, broth-microdilution (CLSI VET01-A4), strain MH 13065. As to conditions: Mannheimia haemolytica strain MH 13065, broth-microdilution; unit assumed. Here is the method:
as §1, §2, §3

The test system of experiment [6] is Mannheimia haemolytica MH 6357 (M7/2, reference strain, cattle infection strain). Put plainly: MIC, broth-microdilution (CLSI VET01-A4), strain MH 6357. As to conditions: Mannheimia haemolytica strain MH 6357, broth-microdilution; unit assumed. The method, then: as §1, §2, §3
Experiment [7] deals with Mannheimia haemolytica MH 13093 (XB0472-6014.1, BRD field isolate). Put plainly: MIC, broth-microdilution (CLSI VET01-A4), strain MH 13093. As to conditions: Mannheimia haemolytica strain MH 13093, broth-microdilution; unit assumed. Here is the method:
as §1, §2, §3

The subject of experiment [8] is Pasteurella multocida PM 12080 (IV102277-0093, BRD field isolate). Description: MIC, broth-microdilution (CLSI VET01-A4), strain PM 12080. As to conditions: Pasteurella multocida strain PM 12080, broth-microdilution; unit assumed. Here is the method: as §1, §2, §3
Experiment [9] relates to Pasteurella multocida PM 10775 (080130003051, BRD field isolate). Description: MIC, broth-microdilution (CLSI VET01-A4), strain PM 10775. As to conditions: Pasteurella multocida strain PM 10775, broth-microdilution; unit assumed. The method, then:
as §1, §2, §3

In brackets after ≈: the same amount, converted by molar mass.

In experiment [1], `COc1ccc(CNCc2ccc(C#Cc3ccc(C(=O)N[C@H](C(=O)NO)C(C)C)cc3)cc2)cc1` [Compound 107] yielded an MIC MH 6374 of 0.8 µg/mL (≈ 1.65 µM). Further, in experiment [2], the MIC MH 10720 was 0.4 µg/mL (≈ 0.824 µM). Also, the MIC PM 6267 in experiment [3] was found to be 0.2 µg/mL (≈ 0.412 µM). Further, the MIC MH 12587 in experiment [4] was 3.1 µg/mL (≈ 6.38 µM). This compound also displayed an MIC MH 13065 in experiment [5] of 0.8 µg/mL (≈ 1.65 µM). The MIC MH 6357 in [6] came to 3.1 µg/mL (≈ 6.38 µM). This compound yielded an MIC MH 13093 in experiment [7] of 0.8 µg/mL (≈ 1.65 µM). In experiment [8], this compound yielded an MIC PM 12080 of 0.4 µg/mL (≈ 0.824 µM). In experiment [9], the MIC PM 10775 is ≤ 0.1 µg/mL.

In [1], `CC(C)[C@H](NC(=O)c1ccc(C#Cc2ccc(CNCc3ccc(N(C)C)cc3)cc2)cc1)C(=O)NO` [Compound 108] registered an MIC MH 6374 of 1.6 µg/mL (≈ 3.21 µM). In experiment [2], this compound came in with an MIC MH 10720 of 1.6 µg/mL (≈ 3.21 µM). This compound registered an MIC PM 6267 in experiment [3] of 0.4 µg/mL (≈ 0.802 µM). This compound also registered an MIC MH 12587 in [4] of 3.1 µg/mL (≈ 6.22 µM). The compound also registered an MIC MH 13065 in experiment [5] of 1.6 µg/mL (≈ 3.21 µM). In addition, in experiment [6], the MIC MH 6357 worked out at 3.1 µg/mL (≈ 6.22 µM). Further, the MIC MH 13093 in [7] turned out to be 3.1 µg/mL (≈ 6.22 µM). This compound returned an MIC PM 12080 in experiment [8] of 1.6 µg/mL (≈ 3.21 µM). Besides, in [9], the MIC PM 10775 is ≤ 0.1 µg/mL.

Regarding `CC(C)[C@H](NC(=O)c1ccc(C#Cc2ccc(CNCc3ccncc3)cc2)cc1)C(=O)NO` [Compound 110], in [1], the MIC MH 6374 was found to be 0.4 µg/mL (≈ 0.876 µM). In addition, the MIC MH 10720 in experiment [2] was ≤ 0.1 µg/mL. The MIC PM 6267 in [3] is ≤ 0.1 µg/mL. Besides, in experiment [4], the MIC MH 12587 was 0.8 µg/mL (≈ 1.75 µM). Also, the MIC MH 13065 in experiment [5] stood at 0.4 µg/mL (≈ 0.876 µM). Besides, in [6], the MIC MH 6357 amounted to 1.6 µg/mL (≈ 3.5 µM). Moreover, the MIC MH 13093 in experiment [7] amounted to 0.4 µg/mL (≈ 0.876 µM). In experiment [8], the MIC PM 12080 amounted to 0.2 µg/mL (≈ 0.438 µM). The MIC PM 10775 in experiment [9] is ≤ 0.1 µg/mL.

`Cc1ccc(CNCc2ccc(C#Cc3ccc(C(=O)N[C@H](C(=O)NO)C(C)C)cc3)cc2)cc1C` [Compound 111] registered an MIC MH 6374 in [1] of 3.1 µg/mL (≈ 6.41 µM). In [2], this compound came in with an MIC MH 10720 of 0.8 µg/mL (≈ 1.65 µM). The MIC PM 6267 in experiment [3] worked out at 0.8 µg/mL (≈ 1.65 µM). Also, in [4], the MIC MH 12587 came out at 12.5 µg/mL (≈ 25.8 µM). Further, the MIC MH 13065 in experiment [5] amounted to 3.1 µg/mL (≈ 6.41 µM). Besides, the MIC MH 6357 in [6] stood at 3.1 µg/mL (≈ 6.41 µM). This compound also had an MIC MH 13093 in [7] of 3.1 µg/mL (≈ 6.41 µM). In addition, the MIC PM 12080 in experiment [8] was 1.6 µg/mL (≈ 3.31 µM). Besides, the MIC PM 10775 in experiment [9] is 0.4 µg/mL (≈ 0.827 µM).

In experiment [1], `CC[C@H](C)[C@H](NC(=O)c1ccc(C#Cc2ccc(CNC3CC3)cc2)cc1)C(=O)NO` [Compound 112] gave an MIC MH 6374 of 0.4 µg/mL (≈ 0.953 µM). The MIC MH 10720 in experiment [2] is ≤ 0.1 µg/mL. Besides, the MIC PM 6267 in experiment [3] was ≤ 0.1 µg/mL. Further, in [4], the MIC MH 12587 turned out to be 0.8 µg/mL (≈ 1.91 µM). This compound also showed an MIC MH 13065 in experiment [5] of 0.4 µg/mL (≈ 0.953 µM). This compound also gave an MIC MH 6357 in experiment [6] of 1.6 µg/mL (≈ 3.81 µM). The MIC MH 13093 in experiment [7] stood at 0.4 µg/mL (≈ 0.953 µM). The compound also gave an MIC PM 12080 in experiment [8] of 0.2 µg/mL (≈ 0.477 µM). Moreover, in experiment [9], the MIC PM 10775 is ≤ 0.1 µg/mL.

`C=CCNCc1ccc(C#Cc2ccc(C(=O)N[C@H](C(=O)NO)[C@@H](C)CC)cc2)cc1` [Compound 113] returned an MIC MH 6374 in [1] of 0.8 µg/mL (≈ 1.91 µM). The MIC MH 10720 in experiment [2] is 0.4 µg/mL (≈ 0.953 µM). The same compound gave an MIC PM 6267 in [3] of 0.4 µg/mL (≈ 0.953 µM). The MIC MH 12587 in [4] is 3.1 µg/mL (≈ 7.39 µM). The compound further gave an MIC MH 13065 in experiment [5] of 1.6 µg/mL (≈ 3.81 µM). Moreover, the MIC MH 6357 in experiment [6] was 3.1 µg/mL (≈ 7.39 µM). Besides, in [7], the MIC MH 13093 stood at 3.1 µg/mL (≈ 7.39 µM). The compound also gave an MIC PM 12080 in experiment [8] of 0.8 µg/mL (≈ 1.91 µM). Further, in experiment [9], the MIC PM 10775 is ≤ 0.1 µg/mL.

For the compound `CC[C@H](C)[C@H](NC(=O)c1ccc(C#Cc2ccc(CNCC(C)(C)C)cc2)cc1)C(=O)NO` [Compound 114], in [1], the MIC MH 6374 amounted to 12.5 µg/mL (≈ 27.8 µM). In experiment [2], the MIC MH 10720 came to 1.6 µg/mL (≈ 3.56 µM). This compound displayed an MIC PM 6267 in experiment [3] of 0.2 µg/mL (≈ 0.445 µM). Moreover, the MIC MH 12587 in experiment [4] stood at 12.5 µg/mL (≈ 27.8 µM). This compound also had an MIC MH 13065 in experiment [5] of 6.3 µg/mL (≈ 14 µM). Also, the MIC MH 6357 in [6] was 6.3 µg/mL (≈ 14 µM). The compound further displayed an MIC MH 13093 in [7] of 6.3 µg/mL (≈ 14 µM). In experiment [8], this compound had an MIC PM 12080 of 0.8 µg/mL (≈ 1.78 µM). The MIC PM 10775 in [9] was ≤ 0.1 µg/mL.

Turning to `CC[C@H](C)[C@H](NC(=O)c1ccc(C#Cc2ccc(CNCCOC)cc2)cc1)C(=O)NO` [Compound 115], the MIC MH 6374 in [1] was determined as 1.6 µg/mL (≈ 3.66 µM). In [2], this compound had an MIC MH 10720 of 0.8 µg/mL (≈ 1.83 µM). The same compound yielded an MIC PM 6267 in experiment [3] of 0.4 µg/mL (≈ 0.914 µM). The compound also came in with an MIC MH 12587 in experiment [4] of 6.3 µg/mL (≈ 14.4 µM). In experiment [5], this compound yielded an MIC MH 13065 of 3.1 µg/mL (≈ 7.09 µM). This compound also displayed an MIC MH 6357 in experiment [6] of 6.3 µg/mL (≈ 14.4 µM). Besides, in [7], the MIC MH 13093 was found to be 3.1 µg/mL (≈ 7.09 µM). The MIC PM 12080 in [8] came out at 1.6 µg/mL (≈ 3.66 µM). Besides, the MIC PM 10775 in [9] is ≤ 0.1 µg/mL.

Compound `CC[C@H](C)[C@H](NC(=O)c1ccc(C#Cc2ccc(CNCCN(C)C)cc2)cc1)C(=O)NO` [Compound 116] yielded an MIC MH 6374 in [1] of 25 µg/mL (≈ 55.5 µM). In experiment [2], the MIC MH 10720 was determined as 3.1 µg/mL (≈ 6.88 µM). The compound also gave an MIC PM 6267 in [3] of 0.8 µg/mL (≈ 1.78 µM). In addition, the MIC MH 12587 in experiment [4] worked out at 1 µg/mL (≈ 2.22 µM). Further, the MIC MH 13065 in experiment [5] amounted to 25 µg/mL (≈ 55.5 µM). Moreover, the MIC MH 6357 in experiment [6] turned out to be 25 µg/mL (≈ 55.5 µM). The compound further yielded an MIC MH 13093 in experiment [7] of 25 µg/mL (≈ 55.5 µM). In experiment [8], this compound displayed an MIC PM 12080 of 3.1 µg/mL (≈ 6.88 µM). Further, in experiment [9], the MIC PM 10775 stood at 0.4 µg/mL (≈ 0.888 µM).
